Measured values reported in the NIST ThermoML archive (doi:10.1016/j.jct.2014.06.004).
± gives the expanded uncertainty stated by the source.

Columns and labels:
[1] = refractive index (Na D-line) (dimensionless); details: 101.33 kPa, Liquid, Standard Abbe refractometry
[2] = 100 kPa, Liquid; for speed of sound: Frequency=3 MHz, Sing-around technique in a fixed-path interferometer; for mass density: Vibrating tube method
[3] = refractive index (Na D-line) (dimensionless); xn = mol fraction of the nth substance listed; details: 100 kPa, Liquid, Standard Abbe refractometry
[4] = xn = mol fraction of the nth substance listed; details: 100 kPa, Liquid; for speed of sound: Frequency=3 MHz, Sing-around technique in a fixed-path interferometer; for mass density: Vibrating tube method

CCCC(=O)O [butanoic acid]
Details | mass density, [2] [kg/m3] | refractive index, [1] | speed of sound, [2] [m/s]
293.15 K | 957.8 ± 0.3 | 1.3983 ± 0.0005 | 1196 ± 2
298.15 K | 952.8 ± 0.3 | 1.3963 ± 0.0005 | 1177 ± 2
303.15 K | 947.9 ± 0.3 | 1.3942 ± 0.0005 | 1158 ± 2
308.15 K | 942.9 ± 0.3 | 1.3922 ± 0.0005 | 1139 ± 2
313.15 K | 938.1 ± 0.3 | 1.3901 ± 0.0005 | 1121 ± 2

CCCC(=O)O [butanoic acid] + CCCCCCC(=O)O
x2 = 0
Details | mass density, [4] [kg/m3] | refractive index, [3] | speed of sound, [4] [m/s]
293.15 K | 957.8 ± 0.3 | 1.3983 ± 0.0005 | 1196 ± 2
298.15 K | 952.8 ± 0.3 | 1.3963 ± 0.0005 | 1177 ± 2
303.15 K | 947.9 ± 0.3 | 1.3942 ± 0.0005 | 1158 ± 2
308.15 K | 942.9 ± 0.3 | 1.3922 ± 0.0005 | 1139 ± 2
313.15 K | 938.1 ± 0.3 | 1.3901 ± 0.0005 | 1121 ± 2

CCOC(=O)OCC [diethyl carbonate]
298.15 K
Details | mass density [kg/m3] | refractive index | speed of sound [m/s]
[1] | – | 1.3825 ± 0.0005 | –
[2] | 969.3 ± 0.3 | – | 1177 ± 2

CCOC(=O)OCC [diethyl carbonate] + CCO
298.15 K
Details | mass density, [4] [kg/m3] | refractive index, [3] | speed of sound, [4] [m/s]
x1 = 0.0415 | 800.3 ± 0.5 | 1.3614 ± 0.0005 | 1145 ± 2
x1 = 0.0943 | 817.7 ± 0.4 | 1.3635 ± 0.0005 | 1147 ± 2
x1 = 0.1932 | 845.9 ± 0.4 | 1.367 ± 0.0005 | 1150 ± 2
x1 = 0.2929 | 869.6 ± 0.4 | 1.3698 ± 0.0005 | 1154 ± 2
x1 = 0.3938 | 890 ± 0.4 | 1.3724 ± 0.0005 | 1156 ± 2
x1 = 0.4965 | 907.8 ± 0.3 | 1.3746 ± 0.0005 | 1159 ± 2
x1 = 0.597 | 923 ± 0.3 | 1.3765 ± 0.0005 | 1162 ± 2
x1 = 0.6924 | 935.7 ± 0.3 | 1.3781 ± 0.0005 | 1166 ± 2
x1 = 0.7911 | 947.6 ± 0.3 | 1.3796 ± 0.0005 | 1169 ± 2
x1 = 0.899 | 959.3 ± 0.3 | 1.3811 ± 0.0005 | 1173 ± 2
x1 = 0.9413 | 963.6 ± 0.3 | 1.3817 ± 0.0005 | 1175 ± 2
x1 = 1 | 969.3 ± 0.3 | 1.3825 ± 0.0005 | 1177 ± 2

CCO [ethanol]
298.15 K
Details | mass density [kg/m3] | refractive index | speed of sound [m/s]
[1] | – | 1.3594 ± 0.0005 | –
[2] | 785.2 ± 0.3 | – | 1142 ± 2

CCO [ethanol] + CCOC(=O)OCC
298.15 K, x2 = 0
Details | mass density [kg/m3] | refractive index | speed of sound [m/s]
[3] | – | 1.3594 ± 0.0005 | –
[4] | 785.2 ± 0.3 | – | 1142 ± 2

CCCCCCC(=O)O [heptanoic acid]
Details | mass density, [2] [kg/m3] | refractive index, [1] | speed of sound, [2] [m/s]
293.15 K | 917.7 ± 0.3 | 1.4234 ± 0.0005 | 1295 ± 2
298.15 K | 913.5 ± 0.3 | 1.4214 ± 0.0005 | 1278 ± 2
303.15 K | 909.3 ± 0.3 | 1.4194 ± 0.0005 | 1260 ± 2
308.15 K | 905.1 ± 0.3 | 1.4173 ± 0.0005 | 1242 ± 2
313.15 K | 900.9 ± 0.3 | 1.4153 ± 0.0005 | 1225 ± 2

CCC(=O)O [propanoic acid]
Details | mass density, [2] [kg/m3] | refractive index, [1] | speed of sound, [2] [m/s]
293.15 K | 993.9 ± 0.3 | 1.3865 ± 0.0005 | 1166 ± 2
298.15 K | 988.5 ± 0.3 | 1.3848 ± 0.0005 | 1147 ± 2
303.15 K | 983.1 ± 0.3 | 1.383 ± 0.0005 | 1128 ± 2
308.15 K | 977.7 ± 0.3 | 1.3811 ± 0.0005 | 1109 ± 2
313.15 K | 972.3 ± 0.3 | 1.3792 ± 0.0005 | 1090 ± 2

CCC(=O)O [propanoic acid] + CCCCCCC(=O)O
x2 = 0
Details | mass density, [4] [kg/m3] | refractive index, [3] | speed of sound, [4] [m/s]
293.15 K | 993.9 ± 0.3 | 1.3865 ± 0.0005 | 1166 ± 2
298.15 K | 988.5 ± 0.3 | 1.3848 ± 0.0005 | 1147 ± 2
303.15 K | 983.1 ± 0.3 | 1.383 ± 0.0005 | 1128 ± 2
308.15 K | 977.7 ± 0.3 | 1.3811 ± 0.0005 | 1109 ± 2
313.15 K | 972.3 ± 0.3 | 1.3792 ± 0.0005 | 1090 ± 2
